Test results taken from patent publication US11958864B2, “Tetracyclic heterocycle compounds useful as HIV integrase inhibitors” (Merck Sharp & Dohme LLC, priority 2021, dated 2024).

Experiment: Dog pharmacokinetic studies: oral dosing of Compound A or prodrug, plasma Compound A by LC-MS/MS
Assay type: in vivo, Male Beagle Dogs
Settings: fasted Beagle dogs, comparison with dosing of Compound A
Method: Male Beagle Dogs (Marshall Farms) were used for the pharmacokinetic studies. Studies were conducted under a protocol approved by the WP-IACUC (Animal Procedure Statement #2018-600787-MAR). Following overnight-fasting, dogs were dosed orally with either Compound A at 10 mg/kg and 25 mg/kg or one of the respective prodrugs at the dose equivalent to 10 mg/kg and 25 mg/kg of Compound A formulated as a suspension in either 0.5% methylcellulose with 0.25% sodium lauryl sulfate or 10% Tween 80-5 mM HCl. Food was returned at 4 hours after dosing. Blood (0.5-mL) was drawn at pre-dose, 0.25, 0.5, 1, 2, 4, 6, 24, 48, 72, 96, and 168 hours post-dosing into EDTA-coated collection tubes containing 25 μL of 2 mM dichlorvos solution in water. The tubes were kept chilled prior to blood collection and throughout plasma separation. The plasma was separated by centrifugation (2 minutes at 10000 g). Plasma samples were immediately frozen and kept at −70° C. until analysis by LC-MS/MS.

Row | Structure (SMILES) | absorption versus their metabolite, Compound A
1 | COCCOC(=O)OCOc1c2n3c(c(C(=O)NCc4cccc(Cl)c4F)c1=O)CC[C@@H]3[C@@H]1OCCCN1C2=O [Compound 1, (((11aS,11bR)-3-((3-chloro-2-fluorobenzyl)carbamoyl)-4,6-dioxo-1,2,4,6,9,10,11a,11b-octahydro-8H-[1,3]oxazino[2′,3′:3,4]pyrazino[2,1,6-cd]indolizin-5-yl)oxy)methyl (2-methoxyethyl) carbonate] | increase in absorption
2 | COC(=O)OCOc1c2n3c(c(C(=O)NCc4cccc(Cl)c4F)c1=O)CC[C@@H]3[C@@H]1OCCCN1C2=O [Compound 6, (((11aS,11bR)-3-((3-chloro-2-fluorobenzyl)carbamoyl)-4,6-dioxo-1,2,4,6,9,10,11a,11b-octahydro-8H-[1,3]oxazino[2′,3′:3,4]pyrazino[2,1,6-cd]indolizin-5-yl)oxy)methyl methyl carbonate] | increase in absorption
